According to patent US12636295B2, “Compositions and methods for the treatment of obstructive sleep apnoea (OSA)” (Incannex Healthcare Limited, priority 2020, dated 2026):
Read-outs that look alike come from different tables or passages of the source.

Legend:
[1] = after ingestion; cited from earlier work
subjects with OSA [2] = assay: Published studies on the effect of single agent acetazolamide on AHI, with linear trend line dose-response; assay type: in vivo, human; settings: from linear trend line of published studies
Description: These studies tested a range of doses across a selection of different patient cohorts.

subjects with OSA [3] = settings: cited from earlier work; for Reduction in AHI (%): relative to baseline or placebo
subjects with OSA [4] = assay: Published study (Carley et al. 2018) on the effect of single agent dronabinol on AHI, with trend line dose-response; assay type: in vivo, human; settings: from trend line of published data

CC(=O)Nc1nnc(S(N)(=O)=O)s1 [Acetazolamide, acetazolamide]
Time to mean peak plasma concentrations [1]: about 2 hours
Predicted AHI reduction (%), single agent (subjects with OSA [2]; acetazolamide 125 mg): 23.4%
Predicted AHI reduction (%), single agent (subjects with OSA [2]; acetazolamide 250 mg): 27.1%
Predicted AHI reduction (%), single agent (subjects with OSA [2]; acetazolamide 500 mg): 34.5%
Acetazolamide AHI (subjects with OSA [3]; 250 mg/day, Chin, 1992, baseline/placebo AHI 38.9): 29.6
Reduction in AHI (%) (subjects with OSA [3]; 250 mg/day, Chin, 1992): 23.9%
Acetazolamide AHI (subjects with OSA [3]; 250 mg/day, Tojima, 1988, baseline/placebo AHI 25): 18.1
Reduction in AHI (%) (subjects with OSA [3]; 250 mg/day, Tojima, 1988): 27.6%
Reduction in AHI (%) (subjects with OSA [3]; 351.2 mg/day, Inoue, 1999): 29.5%
Acetazolamide AHI (subjects with OSA [3]; 375 mg/day, Inoue, 1987, baseline/placebo AHI 26.9): 17.3
Reduction in AHI (%) (subjects with OSA [3]; 375 mg/day, Inoue, 1987): 35.7%
Acetazolamide AHI (subjects with OSA [3]; 750 mg/day, Eskandari, 2018, baseline/placebo AHI 38): 23
Reduction in AHI (%) (subjects with OSA [3]; 750 mg/day, Eskandari, 2018): 39.5%
Acetazolamide AHI (subjects with OSA [3]; 1000 mg/day, Edwards, 2012, baseline/placebo AHI 49.6): 24
Reduction in AHI (%) (subjects with OSA [3]; 1000 mg/day, Edwards, 2012): 51.6%
Acetazolamide AHI (subjects with OSA [3]; 1000 mg/day, Whyte, 1988, baseline/placebo AHI 50): 26
Reduction in AHI (%) (subjects with OSA [3]; 1000 mg/day, Whyte, 1988): 48%

CCCCCc1cc(O)c2c(c1)OC(C)(C)C1CCC(C)=CC21 (stereo not drawn) [Dronabinol]
Time to peak effects [1]: 2 to 4 h
Time to significant concentrations in plasma/blood [1]: 30 to 60 min
Predicted AHI reduction (%), single agent (subjects with OSA [4]; dronabinol 2.5 mg/day): 23.4%
Predicted AHI reduction (%), single agent (subjects with OSA [4]; dronabinol 5 mg/day): 26.5%
